In patent US11596623B2, “Methods for treating virus infection or proliferation” (HOWARD UNIVERSITY, priority 2018, dated 2023):

Assays:
HSV1-Luc (R8411) = assay: HSV1-Luc bioluminescence luciferase assay in HEp-2 cells; assay type: cell-based, HSV-1; conditions: 10 μM
Procedure: (A) Hep-2 cells were incubated with the indicated compounds in the presence of HSV1-Luc virus at a concentration of 4×10^6 pfu/ml media. (B) Quantification of the luciferase signal from the samples in panel (A). Signals from three replicates from two separate experiments were combined to generate the average and the standard error bar.
(§1) To 80-90% confluent HEp-2 cells, HSV-1-Luc (R8411) are added at a concentration of 2×10e^6 pfu/ml along with indicated concentration of inhibitor compounds. After the described incubation period, luciferase activity is evaluated from bioluminescence images acquired by a Perkin Elmer IVIS Spectrum Imaging system immediately after adding luciferase substrate (D-luciferin, Gold Bio Technology) at a concentration of 400 μg/mL in medium. Bioluminescence intensity in different wells is quantified in units of photons per second per centimetre squared per steradian (p/s/cm^2/sr) by drawing a polygonal region of interest over the signals in images using Living Image 3.0 software (Caliper Life Sciences).
as §1, with “cells, HSV1-Luc” for “cells, HSV-1-Luc”, “(R8411) was” for “(R8411) are”, “activity was” for “activity is”, “wells was” for “wells is”, “per centimeter” for “per centimetre”
To visualize the effect of the drugs on the proliferation of HSV-1, a luciferase tagged HSV-1 F strain expressing luciferase (R8411 mutant) under the control of ICP27 promoter was obtained [Horsburgh B C, Hubinette M M, Tufaro F. Genetic manipulation of herpes simplex virus using bacterial artificial chromosomes. Methods Enzymol. 1999; 306:337-52]. […] The same samples after incubation of 48 h were used to assay for HSV-1 ICP0 and RACK1 protein expression (B of FIG. 5). Depletion of RACK1 by the compounds correlated with the depletion of the viral ICP0 protein confirming earlier results shown in B of FIG. 3.

HEp-2 cells = assay: Trypan blue exclusion cell viability; assay type: cell-based; conditions: 24-hour treatment
Procedure: In order to assess whether the compounds are producing any toxicity that can led to the cell deaths, we evaluated the cell viability by the trypan blue exclusion method. As long-term inhibition of RACK1 expression has been reported to cell cycle arrest, we limited our experimental treatments to 24 h and evaluated the cell viability of almost full confluent cells after 24 h of compound treatment.
In table 2, the viability of cells was measured with Trypan blue exclusion assay in a Cellometer (Nexcelom, Lawrence, Mass.). The percentage survival of the compound treated cells was evaluated along with the DMSO treated cells. The values represent the mean±SE of three separate well based replicates.

HSV-1 ICP0 = assay: Real-time RT-PCR of HSV-1 ICP0 transcript in HEp-2 cells; assay type: cell-based; conditions: 12 and 24 hpi, versus DMSO
Excerpt: The total transcript levels were quantified using actin expression as an internal control. The cDNA obtained immediately after the virus and drug transfection(s) was set as a baseline value. The normalized expression values were transformed to the log 10 value. The data plot represents mean t standard error calculated from three replicates.
Following instructions of the manufacturers, total RNA was isolated using Tri Reagent® (Ambion, Inc., Austin, Tex.). To quantitatively examine the mRNA level of HSV-1 ICP0 from the infected cells, real-time RT-PCR was undertaken using the QuantiTect SYBR Green RT-PCR kit (QIAGEN, Valencia, Calif.). […] Fluorescence (captured at 80° C.) was determined to be absent from the signal generated by primer dimers. Data were collected and recorded by the BIORAD CFX Manager software. The relative quantity of the ICP0 transcripts at the indicated time points was normalized to the relative quantity of the reference gene actin at the same time points and then the log10 copy number of the normalized RNA transcripts were calculated and presented on a bar chart. A melting temperature curve analysis was obtained by measuring (after the amplification cycles) the fluorescence during a period of warming from 60° C. to 95° C. […]

[1] = molecular target: T1, recombinant RACK1A protein (Oryza sativa subsp. japonica, UniProt Q6L4F8); assay: Surface Plasmon Resonance (SPR) binding assay; design: species or system rice; conditions: immobilized recombinant RACK1A, KD50=kd/ka
T1 construct: His tag (C); made in house; host or cells: E. coli BL21(DE3)
T1 sequence (Q6L4F8 whole entry): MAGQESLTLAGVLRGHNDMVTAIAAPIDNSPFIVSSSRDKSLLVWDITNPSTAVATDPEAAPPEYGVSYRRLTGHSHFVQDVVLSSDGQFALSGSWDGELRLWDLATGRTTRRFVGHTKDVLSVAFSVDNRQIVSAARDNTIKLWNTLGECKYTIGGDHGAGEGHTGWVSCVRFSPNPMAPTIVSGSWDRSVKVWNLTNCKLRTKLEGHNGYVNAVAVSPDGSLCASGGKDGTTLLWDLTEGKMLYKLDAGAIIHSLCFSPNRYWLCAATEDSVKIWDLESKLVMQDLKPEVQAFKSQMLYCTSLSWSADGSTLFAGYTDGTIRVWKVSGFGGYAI
Procedure: SD-29 (left panel) and SD-29-12 (right panel) were separately injected three times on the CM5 chip at 0, 1.56 μM, at 3.13 μM, 6.25 μM, 12.5 μM, 25 μM, 50 μM, and 100 μM (top sensor) concentrations (left panel) and at 3.13 μM, 6.25 μM, 12.5 μM, 25 μM, 50 μM, and 100 μM (top sensor) concentrations (right panel).
To obtain in vitro confirmation of the binding of the isolated compounds to the purified RACK1 protein, the small compound SD-29 and its structural analog SD29-12 were evaluated for their binding potential with the recombinant RACK1A proteins using the Surface Plasmon Resonance (SPR) chip. SPR experiments were carried out with a Biacore T200 equipped with a CM5 sensor chip. Briefly, recombinant RACK1A cysteine-tagged protein was immobilized on flow cell (FC) 2 in HEPES buffered saline (10 mM Hepes, pH 7.4, and 150 mM NaCl, 3 mM CaCl2)) using a thiol-coupling kit according to the manufacturer's protocol, resulting in immobilization levels of 4580 response units (RU). FC1 was only activated and inactivated and used as a reference. SD-29 stock solution was diluted to a final concentration of 100, 75, 50, 25, 10 μM and 1 μM injected in 10 mM Hepes, 150 mM NaCl, 3 mM CaCl2), 1% DMSO, and 0.5% P20. Each injection was repeated three times for 60 s. […] KD50 is calculated by the equation: KD50=kd/ka; kd—dissociation rate constant, ka—association rate constant. […]

RACK1A protein = assay: RACK1 protein expression under salt stress, western blot; assay type: in vivo; conditions: Arabidopsis lysates
Excerpt: The abundant leaf protein Rubisco large subunit (RbcL) was used as a loading control for the blot. The 37 kD RACK1 band was absent from the genetic knockout of RACK1 plants (double mutant-rack1ab lane).
The reported positive expression of RACK1A protein under salt stress condition in Arabidopsis has led us to examine the RACK1A expression in the presence and absence of the inhibitor compounds during salt stresses. We determined that the RACK1A protein expression was specifically modulated by the inhibitor compounds when the lysates with salt or without salt in the presence and absence of the small compounds were probed with an antibody raised by using the full length RACK1A protein as antigen (Agrisera, Vännäs, Sweden, FIG. 2C). […] However, whether the effect of SD29-12 is Arabidopsis salt stress specific condition needs further experimental evidence. As the antibody cross-reacts with all three RACK1 isoforms in Arabidopsis, we used the double knockout (rack1ab) as a negative control on the blot (triple mutant is lethal at the early seedling stage). The large subunit of the abundant leaf protein rubisco (RbcL) was used as loading control for this blot. As the results support the in-silico based prediction, we set out to investigate the effect of the compounds on the mammalian RACK1 based virus proliferation.

HSV-1 = assay: Plaque formation unit (pfu) assay; assay type: cell-based
Procedure: The viral plaque assay was performed as previously described [Tang Q, Li L, Ishov A M, Revol V, Epstein A L, Maul G G. Determination of minimum herpes simplex virus type 1 components necessary to localize transcriptionally active DNA to ND10. J Virol. 2003; 77:5821-28.] with slight modifications. The HSV-1 strain 17 was diluted serially in a volume of 1 mL. Then 300 ul of the virus was added onto confluent HEp-2 cell monolayers in 12-well plates; each dilution had 3 wells. After adsorption for 2 h, the medium was removed and the cells were washed twice with serum-free DMEM and overlaid with phenol-free DMEM containing 5% FCS, 0.5% low-melting point agarose (GIBCO), and 1% penicillin-streptomycin. The cells were incubated at 37° C. for 48 hours. Neutral red was added on the agarose to stain the live cells. The plaques were counted and reported as pfu per mL. Mean pfu was determined after averaging the number of pfu from different dilutions. Student's t-tests were used to statistically analyze differences between the groups; a p-value lower than 0.005 was used as the threshold for a significant difference.
To assess the efficacy of SD-29 on the HSV-1 proliferation, a plaque assay was performed. We wanted to quantitatively assess whether SD-29 could inhibit viral replication. Because HSV-1 was able to enter cultured HEp-2 cells, we evaluated whether this entry led to productive virus replication.
In Table 1, confluent monolayers of HEp-2 cells were infected with serially diluted HSV-1 virus and were fixed and Giemsa stained at 0, 6, 12, and 24 hr post infection. The numbers of plaques were visualized. The number of plaques formed post infection decreased in the presence of SD-29 in a time-dependent manner.

SMILES	HSV1-Luc proliferation (HSV1-Luc (R8411))	HEp-2 Cell viability, Mean (HEp-2 cells; 10 μM) [%]	HEp-2 Cell viability, Mean (HEp-2 cells; 100 μM) [%]	ICP0 mRNA level (HSV-1 ICP0)	Kd [1] [µM]	RACK1 protein expression under salt stress (RACK1A protein)	Plaque formation unit (HSV-1; 0 hpi) [PFU/mL]	Plaque formation unit (HSV-1; 6 hpi)	Plaque formation unit (HSV-1; 12 hpi)	Plaque formation unit (HSV-1; 24 hpi)
Nc1nc2c(ncn2COCCO)c(=O)[nH]1 [acyclovir, reference compound]	showed inhibition of the HSV1-Luc proliferation	–	–	–	–	–	–	–	–	–
COc1ccc(-c2nnc(SCC(=O)O)n2N)cc1 [SD29-12]	–	92.7	97.7	essentially showed the same level of ICP0 mRNA	58	not	0 ± 0	3.8 ± 0.07 × 10^2 PFU/mL	3.6 ± 0.04 × 10^3 PFU/mL	2.6 ± 0.03 × 10^6 PFU/mL
